Reference: US20170050957A1, “4-AMINO-6-(HETEROCYCLIC)PICOLINATES AND 6-AMINO-2-(HETEROCYCLIC)PYRIMIDINE-4-CARBOXYLATES AND THEIR USE AS HERBICIDES” (Dow AgroSciences LLC, priority 2013, published 2017)

Test system: Wheat and Barley and test plant species
Test: Post-emergent Test III, herbicidal activity in wheat and barley (Table 17; visual injury, GR20/GR50/GR80/GR90)
Type: in vivo
Conditions: 21 d; for Visual Growth Reduction (%) 21 Days After Application, CIRAR / Visual Growth Reduction (%) 21 Days After Application, GALAP / Visual Growth Reduction (%) 21 Days After Application, HORVS / Visual Growth Reduction (%) 21 Days After Application, KCHSC / Visual Growth Reduction (%) 21 Days After Application, LAMPU / Visual Growth Reduction (%) 21 Days After Application, MATCH / Visual Growth Reduction (%) 21 Days After Application, PAPRH / Visual Growth Reduction (%) 21 Days After Application, SASKR / Visual Growth Reduction (%) 21 Days After Application, SINAR / Visual Growth Reduction (%) 21 Days After Application, TRZAS / Visual Growth Reduction (%) 21 Days After Application, VERPE / Visual Growth Reduction (%) 21 Days After Application, VIOTR: post-emergent
Experimental: Post-emergent Test III. Seeds of the desired test plant species were planted in Sun Gro MetroMix® 306 planting mixture, which typically has a pH of 6.0 to 6.8 and an organic matter content of about 30 percent, in plastic pots with a surface area of 103.2 square centimeters (cm^2). When required to ensure good germination and healthy plants, a fungicide treatment and/or other chemical or physical treatment was applied. The plants were grown for 7-36 days (d) in a greenhouse with an approximate 14 hour (h) photoperiod which was maintained at about 18° C. during the day and 17° C. during the night. Nutrients and water were added on a regular basis and supplemental lighting was provided with overhead metal halide 1000-Watt lamps as necessary. The plants were employed for testing when they reached the second or third true leaf stage.
A weighed amount, determined by the highest rate to be tested, of each test compound was placed in a 25 mL glass vial and was dissolved in 4 mL of a 97:3 v/v mixture of acetone and DMSO to obtain concentrated stock solutions. […] The concentrated stock solutions obtained were diluted with 20 mL of an aqueous mixture containing acetone, water, isopropyl alcohol, DMSO, Agri-Dex crop oil concentrate, and X-77 surfactant in a 48:39:10:1.5:1.5:0.02 v/v ratio to obtain spray solutions containing the highest application rates. Additional application rates were obtained by serial dilution of 12 mL of the high rate solution into a solution containing 2 mL of 97:3 v/v mixture of acetone and DMSO and 10 mL of an aqueous mixture containing acetone, water, isopropyl alcohol, DMSO, Agri-Dex crop oil concentrate, and X-77 surfactant in a 48:39:10:1.5:1.5:0.02 v/v ratio to obtain 1/2×, 1/4×, 1/8× and 1/16× rates of the high rate. Compound requirements are based upon a 12 mL application volume at a rate of 187 liters per hectare (L/ha). Formulated compounds were applied to the plant material with an overhead Mandel track sprayer equipped with 8002E nozzles calibrated to deliver 187 L/ha over an application area of 0.503 square meters at a spray height of 18 inches (43 cm) above the average plant canopy height. Control plants were sprayed in the same manner with the solvent blank.
The treated plants and control plants were placed in a greenhouse as described above and watered by subirrigation to prevent wash-off of the test compounds. After 21 d, the condition of the test plants as compared with that of the untreated plants was determined visually and scored on a scale of 0 to 100 percent where 0 corresponds to no injury and 100 corresponds to complete kill. By applying the well-accepted probit analysis as described by J. Berkson in Journal of the American Statistical […], 48, 565 (1953) and by D. Finney in “Probit Analysis” Cambridge University Press (1952), the above data can be used to calculate GR20, GR50, GR80 and GR90 values, which are defined as growth reduction factors that correspond to the effective dose of herbicide required to kill or control 20 percent, 50 percent, 80 percent or 90 percent, respectively, of a target plant.

COC(=O)c1nc(-c2ccc3cc[nH]c3c2F)c(F)c(N)c1Cl [Compound 1.15, Methyl 4-amino-3-chloro-5-fluoro-6-(7-fluoro-1H-indol-6-yl)picolinate]
Visual Growth Reduction (%) 21 Days After Application, CIRAR (CIRAR, 17.5 g ai/ha): F (30-44)
Visual Growth Reduction (%) 21 Days After Application, CIRAR (CIRAR, 35 g ai/ha): D (60-74)
Visual Growth Reduction (%) 21 Days After Application, CIRAR (CIRAR, 70 g ai/ha): C (75-84)
GR50, CIRAR (CIRAR, dose for 50 percent growth reduction, probit analysis): 30 g ai/ha
GR80, CIRAR (CIRAR, dose for 80 percent growth reduction, probit analysis): 70 g ai/ha
GR90, CIRAR (CIRAR, dose for 90 percent growth reduction, probit analysis): 109 g ai/ha
Visual Growth Reduction (%) 21 Days After Application, GALAP (GALAP, 17.5 g ai/ha): D (60-74)
Visual Growth Reduction (%) 21 Days After Application, GALAP (GALAP, 35 g ai/ha): B (85-94)
Visual Growth Reduction (%) 21 Days After Application, GALAP (GALAP, 70 g ai/ha): A (95-100)
GR50, GALAP (GALAP, dose for 50 percent growth reduction, probit analysis): 9 g ai/ha
GR80, GALAP (GALAP, dose for 80 percent growth reduction, probit analysis): 23 g ai/ha
GR90, GALAP (GALAP, dose for 90 percent growth reduction, probit analysis): 37 g ai/ha
Visual Growth Reduction (%) 21 Days After Application, HORVS (HORVS, 17.5 g ai/ha): F (30-44)
Visual Growth Reduction (%) 21 Days After Application, HORVS (HORVS, 35 g ai/ha): E (45-59)
Visual Growth Reduction (%) 21 Days After Application, HORVS (HORVS, 70 g ai/ha): E (45-59)
GR20, HORVS (HORVS, dose for 20 percent growth reduction, probit analysis): 8 g ai/ha
Visual Growth Reduction (%) 21 Days After Application, KCHSC (KCHSC, 17.5 g ai/ha): D (60-74)
Visual Growth Reduction (%) 21 Days After Application, KCHSC (KCHSC, 35 g ai/ha): B (85-94)
Visual Growth Reduction (%) 21 Days After Application, KCHSC (KCHSC, 70 g ai/ha): B (85-94)
GR50, KCHSC (KCHSC, dose for 50 percent growth reduction, probit analysis): 6 g ai/ha
GR80, KCHSC (KCHSC, dose for 80 percent growth reduction, probit analysis): 28 g ai/ha
GR90, KCHSC (KCHSC, dose for 90 percent growth reduction, probit analysis): 67 g ai/ha
Visual Growth Reduction (%) 21 Days After Application, LAMPU (LAMPU, 17.5 g ai/ha): A (95-100)
Visual Growth Reduction (%) 21 Days After Application, LAMPU (LAMPU, 35 g ai/ha): A (95-100)
Visual Growth Reduction (%) 21 Days After Application, LAMPU (LAMPU, 70 g ai/ha): A (95-100)
GR50, LAMPU (LAMPU, dose for 50 percent growth reduction, probit analysis): 0.10 g ai/ha
GR80, LAMPU (LAMPU, dose for 80 percent growth reduction, probit analysis): 1 g ai/ha
GR90, LAMPU (LAMPU, dose for 90 percent growth reduction, probit analysis): 2 g ai/ha
Visual Growth Reduction (%) 21 Days After Application, MATCH (MATCH, 17.5 g ai/ha): F (30-44)
Visual Growth Reduction (%) 21 Days After Application, MATCH (MATCH, 35 g ai/ha): E (45-59)
Visual Growth Reduction (%) 21 Days After Application, MATCH (MATCH, 70 g ai/ha): D (60-74)
GR50, MATCH (MATCH, dose for 50 percent growth reduction, probit analysis): 45 g ai/ha
GR80, MATCH (MATCH, dose for 80 percent growth reduction, probit analysis): >140 g ai/ha
GR90, MATCH (MATCH, dose for 90 percent growth reduction, probit analysis): >140 g ai/ha
Visual Growth Reduction (%) 21 Days After Application, PAPRH (PAPRH, 17.5 g ai/ha): A (95-100)
Visual Growth Reduction (%) 21 Days After Application, PAPRH (PAPRH, 35 g ai/ha): A (95-100)
Visual Growth Reduction (%) 21 Days After Application, PAPRH (PAPRH, 70 g ai/ha): A (95-100)
GR50, PAPRH (PAPRH, dose for 50 percent growth reduction, probit analysis): 0.06 g ai/ha
GR80, PAPRH (PAPRH, dose for 80 percent growth reduction, probit analysis): 1 g ai/ha
GR90, PAPRH (PAPRH, dose for 90 percent growth reduction, probit analysis): 2 g ai/ha
Visual Growth Reduction (%) 21 Days After Application, SASKR (SASKR, 17.5 g ai/ha): C (75-84)
Visual Growth Reduction (%) 21 Days After Application, SASKR (SASKR, 35 g ai/ha): C (75-84)
Visual Growth Reduction (%) 21 Days After Application, SASKR (SASKR, 70 g ai/ha): B (85-94)
GR50, SASKR (SASKR, dose for 50 percent growth reduction, probit analysis): 7 g ai/ha
GR80, SASKR (SASKR, dose for 80 percent growth reduction, probit analysis): 30 g ai/ha
GR90, SASKR (SASKR, dose for 90 percent growth reduction, probit analysis): 95 g ai/ha
Visual Growth Reduction (%) 21 Days After Application, SINAR (SINAR, 17.5 g ai/ha): A (95-100)
Visual Growth Reduction (%) 21 Days After Application, SINAR (SINAR, 35 g ai/ha): A (95-100)
Visual Growth Reduction (%) 21 Days After Application, SINAR (SINAR, 70 g ai/ha): A (95-100)
GR50, SINAR (SINAR, dose for 50 percent growth reduction, probit analysis): 4 g ai/ha
GR80, SINAR (SINAR, dose for 80 percent growth reduction, probit analysis): 8 g ai/ha
GR90, SINAR (SINAR, dose for 90 percent growth reduction, probit analysis): 12 g ai/ha
Visual Growth Reduction (%) 21 Days After Application, TRZAS (TRZAS, 17.5 g ai/ha): F (30-44)
Visual Growth Reduction (%) 21 Days After Application, TRZAS (TRZAS, 35 g ai/ha): E (45-59)
Visual Growth Reduction (%) 21 Days After Application, TRZAS (TRZAS, 70 g ai/ha): D (60-74)
GR20, TRZAS (TRZAS, dose for 20 percent growth reduction, probit analysis): 13 g ai/ha
Visual Growth Reduction (%) 21 Days After Application, VERPE (VERPE, 17.5 g ai/ha): A (95-100)
Visual Growth Reduction (%) 21 Days After Application, VERPE (VERPE, 35 g ai/ha): A (95-100)
Visual Growth Reduction (%) 21 Days After Application, VERPE (VERPE, 70 g ai/ha): A (95-100)
GR50, VERPE (VERPE, dose for 50 percent growth reduction, probit analysis): 0.28 g ai/ha
GR80, VERPE (VERPE, dose for 80 percent growth reduction, probit analysis): 2 g ai/ha
GR90, VERPE (VERPE, dose for 90 percent growth reduction, probit analysis): 6 g ai/ha
Visual Growth Reduction (%) 21 Days After Application, VIOTR (VIOTR, 17.5 g ai/ha): E (45-59)
Visual Growth Reduction (%) 21 Days After Application, VIOTR (VIOTR, 35 g ai/ha): D (60-74)
Visual Growth Reduction (%) 21 Days After Application, VIOTR (VIOTR, 70 g ai/ha): C (75-84)
GR50, VIOTR (VIOTR, dose for 50 percent growth reduction, probit analysis): 22 g ai/ha
GR80, VIOTR (VIOTR, dose for 80 percent growth reduction, probit analysis): 63 g ai/ha
GR90, VIOTR (VIOTR, dose for 90 percent growth reduction, probit analysis): 111 g ai/ha
